# Experimental data reported in patent US8637525B2, “Compounds for the reduction of beta-amyloid production” (Bristol-Myers Squibb Company, priority 2009, dated 2014).
# Structures can show the parent of a compound that is named as a salt.
# Test system: Aβ1-42 production
# Experiment: Cellular assay for inhibition of Aβ1-42 production (H4 APP751 SWE clone 8.20)
# Format: cell-based
# Conditions: 19 h, H4 APP751 SWE clone 8.20 cells, 19 h incubation; class symbols; read-out: Activity Rating (Aβ42 cellular IC50)
# Summary of the method: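 Secreted peptide was quantified with a two-antibody homogeneous format combining Wallac-labelled 565, which recognises the Aβ42 end, and APC-labelled 26D6 at 0.8 and 75 ng/well respectively. Antibodies were diluted in 40 mM Tris-HCl, pH 7.4, 0.2% BSA and left overnight at 4 °C after a 19 h compound incubation.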
row,SMILES,IC50 [nM]
1,"CCNc1nc(Nc2ccc(-n3cnc(C)n3)c(F)c2)nc2c1CN(S(C)(=O)=O)CC2c1ccccc1 (stereo not shown) [Example 139, N4-ethyl-N2-(3-fluoro-4-(3-methyl-1H-1,2,4-triazol-1-yl)phenyl)-6-(methylsulfonyl)-8-phenyl-5,6,7,8-tetrahydropyrido[4,3-d]pyrimidine-2,4-diamine]",10 to 100
2,"COc1cc(Nc2nc3c(c(N4CCC5(C4)OCCO5)n2)CCC3c2ccccc2)ccc1-n1cnc(Cl)c1 (stereo not shown) [Example 205, N-(4-(4-chloro-1H-imidazol-1-yl)-3-methoxyphenyl)-7-phenyl-4-(1,4-dioxa-7-azaspiro[4.4]nonan-7-yl)-6,7-dihydro-5H-cyclopenta[d]pyrimidin-2-amine]",10 to 100
3,"CNc1nc(Nc2ccc(-n3cnc(Cl)c3)c(OC)c2)nc2c1CCC2c1ccc(F)c(F)c1 (racemic) [Example 96, N^2-(4-(4-Chloro-1H-imidazol-1-yl)-3-methoxyphenyl)-7-(3,4-difluorophenyl)-N^4-methyl-6,7-dihydro-5H-cyclopenta[d]pyrimidine-2,4-diamine]",1.5 to 9.9
4,"CCN(C)c1nc(Nc2ccc(-n3cnc(Cl)c3)c(OC)c2)nc2c1CCC2c1ccccc1 (stereo not shown) [Example 5, N^2-(4-(4-Chloro-1H-imidazol-1-yl)-3-methoxyphenyl)-N^4-ethyl-N^4-methyl-7-phenyl-6,7-dihydro-5H-cyclopenta[d]pyrimidine-2,4-diamine]",1.5 to 9.9
5,"CCNc1nc(Nc2ccc(-n3ncnc3C)c(F)c2)nc2c1COC2c1ccc(F)cc1 (stereo not shown) [Example 78, N^4-ethyl-N^2-(3-fluoro-4-(5-methyl-1H-1,2,4-triazol-1-yl)phenyl)-7-(4-fluorophenyl)-5,7-dihydrofuro[3,4-d]pyrimidine-2,4-diamine]",10 to 100
6,"CNc1nc(Nc2ccc(-n3cnc(Cl)c3)c(OC)c2)nc2c1CCC2c1ccc(Cl)cc1 (racemic) [Example 94, N^2-(4-(4-Chloro-1H-imidazol-1-yl)-3-methoxyphenyl)-7-(4-chlorophenyl)-N^4-methyl-6,7-dihydro-5H-cyclopenta[d]pyrimidine-2,4-diamine]",1.5 to 9.9
7,"CNc1nc(Nc2ccc(-n3cnc(C)n3)c(OC)c2)nc2c1CC[C@H]2c1ccc(Cl)cc1F (single isomer, unassigned) [Example 271A]",1.5 to 9.9
8,"CNc1nc(Nc2ccc(-n3cnc(C)n3)c(F)c2)nc2c1CCC2c1ccccc1 (stereo not shown) [Example 2, N2-(3-fluoro-4-(3-methyl-1H-1,2,4-triazol-1-yl)phenyl)-N4-methyl-7-phenyl-6,7-dihydro-5H-cyclopenta[d]pyrimidine-2,4-diamine]",1.5 to 9.9
9,"CNc1nc(Nc2ccc(-n3cnc(C)n3)c(OC)c2)nc2c1CC[C@@H]2c1ccccc1OC [Example 266B, (R)—N2-(3-methoxy-4-(3-methyl-1H-1,2,4-triazol-1-yl)phenyl)-7-(2-methoxyphenyl)-N4-methyl-6,7-dihydro-5H-cyclopenta[d]pyrimidine-2,4-diamine]",10 to 100
10,"CNc1nc(Nc2ccc(-n3cnc(C)c3)c(OC)c2)nc2c1COCC2c1ccc(Cl)cc1 (stereo not shown) [Example 70, 8-(4-chlorophenyl)-N^2-(3-methoxy-4-(4-methyl-1H-imidazol-1-yl)phenyl)-N^4-methyl-7,8-dihydro-5H-pyrano[4,3-d]pyrimidine-2,4-diamine]",1.5 to 9.9
11,"CNc1nc(Nc2ccc(-n3cnc(Cl)c3)c(OC)c2)nc2c1COCC2c1ccc(Cl)cc1 (stereo not shown) [Example 64, N^2-(4-(4-chloro-1H-imidazol-1-yl)-3-methoxyphenyl)-8-(4-chlorophenyl)-N^4-methyl-7,8-dihydro-5H-pyrano[4,3-d]pyrimidine-2,4-diamine]",10 to 100
12,"CNc1nc(Nc2ccc(-n3ncnc3C)c(F)c2)nc2c1COCC2c1ccc(Cl)cc1 (stereo not shown) [Example 69, 8-(4-chlorophenyl)-N^2-(3-fluoro-4-(5-methyl-1H-1,2,4-triazol-1-yl)phenyl)-N^4-methyl-7,8-dihydro-5H-pyrano[4,3-d]pyrimidine-2,4-diamine]",10 to 100
13,"CNc1nc(Nc2ccc(Br)cc2OC)nc2c1CCC2c1ccccc1 (stereo not shown) [Example 221, N2-(4-bromo-2-methoxyphenyl)-N4-methyl-7-phenyl-6,7-dihydro-5H-cyclopenta[d]pyrimidine-2,4-diamine]",> 1000
14,"CNc1nc(Nc2ccc(-n3cnc(C)n3)c(OC)c2)nc2c1CC[C@H]2c1ccccc1OC (single isomer, unassigned) [Example 266A]",10 to 100
15,"COc1cc(Nc2nc3c(c(N4CC(N(C)C)C4)n2)CCC3c2ccc(F)cc2)ccc1-n1cnc(Cl)c1 (stereo not shown) [Example 34, N-(4-(4-chloro-1H-imidazol-1-yl)-3-methoxyphenyl)-4-(3-(dimethylamino)azetidin-1-yl)-7-(4-fluorophenyl)-6,7-dihydro-5H-cyclopenta[d]pyrimidin-2-amine]",10 to 100

# Same assay, conditions: 19 h, H4 APP751 SWE clone 8.20 cells, 19 h incubation; read-out: Activity Rating (Aβ42 cellular IC50), numeric value
row,SMILES,IC50 [nM]
1,"COc1cc(Nc2nc3c(c(N4CCC(F)C4)n2)COCC3c2ccc(F)cc2)ccc1-n1cnc(Cl)c1 (stereo in doubt) [Example 58B, N-(4-(4-chloro-1H-imidazol-1-yl)-3-methoxyphenyl)-8-(4-fluorophenyl)-4-((S)-3-fluoropyrrolidin-1-yl)-7,8-dihydro-5H-pyrano[4,3-d]pyrimidin-2-amine]",120
2,"CCNc1nc(Nc2ccc(-n3cnc(C)n3)c(F)c2)nc2c1CN(S(C)(=O)=O)CC2c1ccc(F)cc1 (stereo not shown) [Example 156A, N4-ethyl-N2-(3-fluoro-4-(3-methyl-1H-1,2,4-triazol-1-yl)pheny)-8-(4-fluorophenyl)-6-(methylsulfonyl)-5,6,7,8-tetrahydropyrido[4,3-d]pyrimidine-2,4-diamine]",9.8
3,"CCNc1nc(Nc2ccc(-n3ncnc3C)c(F)c2)nc2c1CN(C(=O)C1CC1)CC2c1ccccc1 (stereo not shown) [Example 144B, cyclopropyl(4-(ethylamino)-2-(3-fluoro-4-(5-methyl-1H-1,2,4-triazol-1-yl)phenylamino)-8-phenyl-7,8-dihydropyrido[4,3-d]pyrimidin-6(5H)-yl)methanone]",540
4,"CCC(COC)Nc1nc(Nc2ccc(-n3cnc(Cl)c3)c(OC)c2)nc2c1CCC2c1ccc(F)cc1 [Example 48, N2-(4-(4-chloro-1H-imidazol-1-yl)-3-methoxyphenyl)-7-(4-fluorophenyl)-N4-((R)-1-methoxybutan-2-yl)-6,7-dihydro-5H-cyclopenta[d]pyrimidine-2,4-diamine, 2 TFA]",18

# Same assay, conditions: H4 APP751 SWE clone 8.20 cells, 19 h incubation; class symbols; read-out: Activity Rating (Aβ42 cellular IC50)
row,SMILES,IC50 [nM]
1,"CNc1nc(Nc2ccc(-n3cnc(Cl)c3)c(OC)c2)nc2c1CCC2c1cc(F)c(F)c(F)c1 (single isomer, unassigned) [Example 103B, N^2-(4-(4-chloro-1H-imidazol-1-yl)-3-methoxyphenyl)-N^4-methyl-7-(3,4,5-trifluorophenyl)-6,7-dihydro-5H-cyclopenta[d]pyrimidine-2,4-diamine]",10 to 100
2,"CNc1nc(Nc2ccc(-n3ncnc3C)c(F)c2)nc2c1CCC2c1ccccc1 (single isomer, unassigned) [Example 3B, N^2-(3-fluoro-4-(5-methyl-1H-1,2,4-triazol-1-yl)phenyl)-N^4-methyl-7-phenyl-6,7-dihydro-5H-cyclopenta[d]pyrimidine-2,4-diamine]",10 to 100
3,"CCNc1nc(Nc2ccc(-n3cnc(Cl)c3)c(OC)c2)nc2c1COCC2c1cc(F)cc(F)c1 (stereo not shown) [Example 112B, N2-(4-(4-chloro-1H-imidazol-1-yl)-3-methoxyphenyl)-8-(3,5-difluorophenyl)-N4-ethyl-7,8-dihydro-5H-pyrano[4,3-d]pyrimidine-2,4-diamine]",10 to 100
4,"COc1cc(Nc2nc3c(c(N4CCC(O)(C(F)(F)F)C4)n2)CCC3c2ccc(F)cc2)ccc1-n1cnc(Cl)c1 (single isomer, unassigned) [Example 28, 1-(2-(4-(4-chloro-1H-imidazol-1-yl)-3-methoxyphenylamino)-7-(4-fluorophenyl)-6,7-dihydro-5H-cyclopenta[d]pyrimidin-4-yl)-3-(trifluoromethyl)pyrrolidin-3-ol]",10 to 100
5,"CNc1nc(Nc2ccc(-n3cnc(Cl)c3)c(OC)c2)nc2c1CCC2c1ccc(F)cc1F (single isomer, unassigned) [Example 109B, N^2-(4-(4-Chloro-1H-imidazol-1-yl)-3-methoxyphenyl)-7-(2,4-difluorophenyl)-N^4-methyl-6,7-dihydro-5H-cyclopenta[d]pyrimidine-2,4-diamine]",1.5 to 9.9
6,"CNc1nc(Nc2ccc(-n3ncnc3C)c(F)c2)nc2c1COCC2c1ccc(Cl)cc1 (single isomer, unassigned) [Example 69A, 8-(4-chlorophenyl)-N^2-(3-fluoro-4-(5-methyl-1H-1,2,4-triazol-1-yl)phenyl)-N^4-methyl-7,8-dihydro-5H-pyrano[4,3-d]pyrimidine-2,4-diamine]",1.5 to 9.9
7,"CCNc1nc(Nc2ccc(-n3cnc(Cl)c3)c(OC)c2)nc2c1COC2c1ccc(F)cc1 (single isomer, unassigned) [Example 75B, N^2-(4-(4-chloro-1H-imidazol-1-yl)-3-methoxyphenyl)-N^4-ethyl-7-(4-fluorophenyl)-5,7-dihydrofuro[3,4-d]pyrimidine-2,4-diamine]",10 to 100
8,"CNc1nc(Nc2ccc(-n3cnc(C)n3)c(OC)c2)nc2c1COCC2c1ccc(Cl)cc1 (single isomer, unassigned) [Example 71B, 8-(4-chlorophenyl)-N^2-(3-methoxy-4-(3-methyl-1H-1,2,4-triazol-1-yl)phenyl)-N^4-methyl-7,8-dihydro-5H-pyrano[4,3-d]pyrimidine-2,4-diamine]",10 to 100
9,"COc1cc(Nc2nc3c(c(N4CC(F)C4)n2)CCC3c2ccccc2)ccc1-n1cnc(Cl)c1 (stereo not shown) [Example 182, N-(4-(4-chloro-1H-imidazol-1-yl)-3-methoxyphenyl)-4-(3-fluoroazetidin-1-yl)-7-phenyl-6,7-dihydro-5H-cyclopenta[d]pyrimidin-2-amine]",10 to 100
